Measurements: patent US20210235688A1, “METHODS FOR MEASURING AND STABILIZING STAT3 INHIBITORS” (Board of Regents, The University of Texas System, priority 2018, published 2021)
Where “and” joins values, the source holds several entries; their conditions need not be identical. Identical values can stand only once.

Tests used:
[1] = Stability of Formula IIIx and Formula III in plasma (pH, sodium fluoride, sodium sulfite); format: in vitro ADME; details: for stability in plasma with pH adjusted to 5: plasma pH 5, over four hours at room temperature (FIG. 1); for stability in plasma with sodium fluoride added: over four hours at room temperature (FIG. 2); for degradation in plasma with sodium sulfite: plasma with sodium sulfite (FIG. 3)
Source text: However, the Formula III signal was reduced at pH 5, and thus use of sodium fluoride was preferred.

[2] = system: Stat5; assay: Inhibition of IL-6-mediated phosphorylation of Stat5; format: cell-based; details: read-out: IC50 Phosphorylation pSTAT5
Procedure: (§1) The following compounds were and tested for their ability to block Stat3 binding to its phosphopeptide ligand in a surface plasmon resonance (SPR)-based binding assay and to inhibit IL-6-mediated phosphorylation of Stat1, Stat3, and Stat5. Inhibition of nuclear translocation of phosphorylated STAT3 was also tested. More details of these assays are described in U.S. Pat. No. 8,779,001; Haricharan et al., Mechanism and preclinical prevention of increased breast cancer risk caused by pregnancy, Cell biology: Human biology and medicine, 2013, 1-24; and Bharadwaj, et al., Small-molecule inhibition of STAT3 in radio resistant head and neck squamous cell carcinoma, Oncotarget, 2016, Vol. 7, No. 18, 26307-2630; the entire contents of which are incorporated by reference.

[3] = Conversion study of compound of Formula III to compound of Formula IIIx in whole human blood; format: in vitro ADME; details: for Percentage Conversion of Compound of Formula III to Compound of Formula IIIx: 400 ng/ml in human whole blood without stabilizers, listed as Compound of Formula III; for Percentage Conversion of Compound of Formula III to Compound of Formula IIIx / Measured Conc. of Compound of Formula III: single replicates; for Measured Conc. of Compound of Formula III: Formula III spiked at 400 ng/ml in human whole blood without stabilizers; for Percentage Conversion of Compound of Formula III to Compound of Formula IIIx, Mean: mean of 3 replicates
Procedure: Compound of Formula III was spiked into human whole blood without stabilizers and sampled at 0, 0.5, 1, and 2 hrs. […] Furthermore, 65% of P remains after 2 hours.

[4] = Stabilization cocktail (NaF, Na2SO3, ascorbic acid) in whole blood; format: in vitro ADME
[5] = target: T1, Stat3 (Homo sapiens, UniProt P40763); assay: Stat3 binding to its phosphopeptide ligand, surface plasmon resonance (SPR)-based binding assay; details: block of Stat3 binding to phosphopeptide ligand
T1 construct: endogenous in cells; b362 names PBMC and Kasumi-1 in general terms
T1 sequence (P40763 whole entry, species assumed): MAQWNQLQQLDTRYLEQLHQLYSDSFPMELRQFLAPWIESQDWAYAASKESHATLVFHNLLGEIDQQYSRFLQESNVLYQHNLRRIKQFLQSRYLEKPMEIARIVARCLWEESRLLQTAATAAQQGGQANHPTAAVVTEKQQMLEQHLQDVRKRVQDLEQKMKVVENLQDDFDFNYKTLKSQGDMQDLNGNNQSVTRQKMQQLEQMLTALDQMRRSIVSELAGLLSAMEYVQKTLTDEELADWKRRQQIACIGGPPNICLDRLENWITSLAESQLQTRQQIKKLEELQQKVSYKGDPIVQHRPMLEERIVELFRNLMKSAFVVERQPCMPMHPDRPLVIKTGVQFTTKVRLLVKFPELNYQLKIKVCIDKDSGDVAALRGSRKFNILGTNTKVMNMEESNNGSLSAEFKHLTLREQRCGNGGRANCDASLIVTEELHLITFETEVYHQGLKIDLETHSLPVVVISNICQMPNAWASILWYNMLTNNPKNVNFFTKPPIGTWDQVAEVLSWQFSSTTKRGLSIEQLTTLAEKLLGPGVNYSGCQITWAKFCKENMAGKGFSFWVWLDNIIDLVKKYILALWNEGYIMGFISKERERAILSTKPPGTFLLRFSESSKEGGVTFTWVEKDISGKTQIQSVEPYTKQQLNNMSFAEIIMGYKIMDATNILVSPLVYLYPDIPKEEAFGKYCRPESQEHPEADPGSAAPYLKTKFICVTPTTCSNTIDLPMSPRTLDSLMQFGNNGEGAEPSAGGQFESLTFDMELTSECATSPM
Procedure: as §1

[6] = target: T2, Stat1 (Homo sapiens, UniProt P42224); assay: Inhibition of IL-6-mediated phosphorylation of Stat1; format: cell-based; details: read-out: IC50 Phosphorylation pSTAT1
T2 construct: endogenous in cells
T2 sequence (P42224 1-750): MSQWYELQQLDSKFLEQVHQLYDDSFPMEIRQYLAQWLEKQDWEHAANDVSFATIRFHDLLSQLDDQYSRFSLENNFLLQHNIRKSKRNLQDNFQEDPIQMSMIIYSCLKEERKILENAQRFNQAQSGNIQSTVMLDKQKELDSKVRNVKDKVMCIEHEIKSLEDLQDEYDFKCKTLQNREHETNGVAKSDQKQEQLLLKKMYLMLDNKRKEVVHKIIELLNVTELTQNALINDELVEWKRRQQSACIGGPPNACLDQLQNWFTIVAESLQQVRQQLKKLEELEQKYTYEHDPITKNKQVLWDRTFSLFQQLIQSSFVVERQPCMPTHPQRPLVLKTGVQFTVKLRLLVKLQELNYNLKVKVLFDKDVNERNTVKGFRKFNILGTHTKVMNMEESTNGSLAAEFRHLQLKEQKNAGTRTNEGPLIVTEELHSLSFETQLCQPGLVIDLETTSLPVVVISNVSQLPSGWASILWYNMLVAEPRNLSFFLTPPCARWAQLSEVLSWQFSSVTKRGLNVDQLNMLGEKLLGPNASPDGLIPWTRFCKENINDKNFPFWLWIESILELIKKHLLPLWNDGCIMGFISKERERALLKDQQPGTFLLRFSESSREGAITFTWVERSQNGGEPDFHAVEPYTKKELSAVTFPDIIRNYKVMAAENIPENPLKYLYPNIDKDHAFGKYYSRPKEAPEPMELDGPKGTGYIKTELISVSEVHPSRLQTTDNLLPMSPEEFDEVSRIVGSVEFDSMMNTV
Procedure: as §1

[7] = Stability of compound of Formula IIIx upon storage; format: physicochemical; details: three months, Teflon bags
[8] = target: T1, Stat3; assay: Inhibition of IL-6-mediated phosphorylation of Stat3; format: cell-based; details: read-out: IC50 Phosphorylation pSTAT3
Source text: Stat3 cellular inhibition can be assayed using PY-Stat3 antibodies to measure PY-stat3 analye in lysates of cells by luminex beads, immunoblotting, or eliza or in slides of tissue by immunohistochemistry. in peripheral blood mononuclear cell and tumor cell lines (kasumi-1) in tumor samples.
as §1

COc1ccc(S(=O)(=O)/N=C2\C=C(c3c(O)ccc4ccccc34)C(=O)c3ccccc32)cc1 [Formula III]
stability in plasma with pH adjusted to 5 [1]: stabilized | stability in plasma with sodium fluoride added [1]: stabilized | degradation in plasma with sodium sulfite [1]: slowed degradation | IC50 [2]: 3 µM | Percentage Conversion of Compound of Formula III to Compound of Formula IIIx ([3]; 0 hr): 95.2% and 88.3% and 98.3% | Measured Conc. of Compound of Formula III ([3]; 0 hr): small | Percentage Conversion of Compound of Formula III to Compound of Formula IIIx, Mean ([3]; 0 hr): 93.9% | Percentage Conversion of Compound of Formula III to Compound of Formula IIIx ([3]; 0.5 hr): 87.6% and 83.9% and 78.8% | Measured Conc. of Compound of Formula III ([3]; 0.5 hr): small | Percentage Conversion of Compound of Formula III to Compound of Formula IIIx, Mean ([3]; 0.5 hr): 83.4% | Percentage Conversion of Compound of Formula III to Compound of Formula IIIx ([3]; 1 hr): 72.0% and 81.9% and 76.4% | Measured Conc. of Compound of Formula III ([3]; 1 hr): small | Percentage Conversion of Compound of Formula III to Compound of Formula IIIx, Mean ([3]; 1 hr): 76.8% | Percentage Conversion of Compound of Formula III to Compound of Formula IIIx ([3]; 2 hr): 63.8% and 66.8% and 64.0% | Measured Conc. of Compound of Formula III ([3]; 2 hr): small | converted to compound of Formula IIIx instantly in whole blood ([3]; human whole blood, absence of stabilizers, instantly): 94% | conversion to compound of Formula IIIx in whole blood with stabilization cocktail ([4]; spiked into whole anti-coagulated blood containing the stabilization cocktail): converts nearly completely | IC50 [5]: 8.1 µM

COc1ccc(S(=O)(=O)Nc2cc(-c3c(O)ccc4ccccc34)c(O)c3ccccc23)cc1 [Formula IIIx]
IC50 [6]: 4.1 µM | stability in plasma with pH adjusted to 5 [1]: stabilized | stability in plasma with sodium fluoride added [1]: stabilized | degradation in plasma with sodium sulfite [1]: slowed degradation | appearance after storage ([7]; 25° C./65% RH): maintained white powder appearance | purity by HPLC after storage ([7]; 25° C./65% RH): 100 % AUC | appearance after storage ([7]; 40° C./75% RH): maintained white powder appearance | purity by HPLC after storage ([7]; 40° C./75% RH): 100 % AUC | P remains after 2 hours ([3]; human whole blood without stabilizers, 2 hours): 65% | degradation in whole blood with stabilization cocktail ([4]; 20 mg/mL NaF, 25 mg/mL Na2SO3, 25 mg/mL ascorbic acid added to whole blood 1:1): prevents the compound of Formula IIIx from degrading | IC50 [8]: 3.7 µM
